Measured values: patent publication US11492335B2, “Aryl or heteroaryl triazolone derivatives or salts thereof, or pharmaceutical compositions comprising the same” (YUHAN CORPORATION, priority 2018, dated 2022)
Structures can show the parent of a compound that is named as a salt. Where two headings read alike, the source gives them in different places.

Legend:
Assay type in all cases: biochemical
[1] = biological target: T1, recombinant human VAP-1 (Homo sapiens, UniProt Q16853); experiment: Activity on recombinant human VAP-1, Amplex Red HRP-coupled hydrogen peroxide assay, benzylamine substrate; settings: recombinant human VAP-1, benzylamine substrate, read-out: Inhibitory Activity (IC50, nM) human VAP-1
T1 construct: purchased R&D systems
T1 sequence (Q16853 1-763): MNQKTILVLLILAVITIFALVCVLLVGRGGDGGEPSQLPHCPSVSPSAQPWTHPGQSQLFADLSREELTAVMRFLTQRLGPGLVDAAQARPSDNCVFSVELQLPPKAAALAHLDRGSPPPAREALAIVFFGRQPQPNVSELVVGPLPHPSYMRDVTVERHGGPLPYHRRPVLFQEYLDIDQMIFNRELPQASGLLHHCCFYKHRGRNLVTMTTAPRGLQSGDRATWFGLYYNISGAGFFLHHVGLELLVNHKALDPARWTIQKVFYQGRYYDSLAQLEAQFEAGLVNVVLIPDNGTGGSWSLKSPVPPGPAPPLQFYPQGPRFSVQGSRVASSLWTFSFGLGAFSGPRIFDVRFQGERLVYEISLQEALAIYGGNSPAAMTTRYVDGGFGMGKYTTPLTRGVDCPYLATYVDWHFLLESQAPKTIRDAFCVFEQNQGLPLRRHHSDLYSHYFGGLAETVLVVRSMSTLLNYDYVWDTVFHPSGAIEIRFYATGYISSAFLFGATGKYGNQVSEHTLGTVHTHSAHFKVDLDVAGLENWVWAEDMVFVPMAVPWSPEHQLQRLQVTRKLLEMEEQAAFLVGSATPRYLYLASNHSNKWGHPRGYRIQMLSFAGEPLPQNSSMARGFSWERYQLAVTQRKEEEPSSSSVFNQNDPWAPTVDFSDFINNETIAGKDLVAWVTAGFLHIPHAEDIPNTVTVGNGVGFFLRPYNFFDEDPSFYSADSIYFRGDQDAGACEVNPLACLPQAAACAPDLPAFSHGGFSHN
Method in brief: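 Enzyme in 50 mM sodium phosphate (pH 7.4) is exposed to test compound for 30 min at 37 °C. Benzylamine (1 mM) with HRP and Amplex Red then starts the reaction, and the fluorescence rate, relative to a DMSO-only control, gives IC50.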

[2] = biological target: T2, recombinant human MAO-A (monoamine oxidase-A) (Homo sapiens, UniProt P21397); experiment: Activity on recombinant human MAO-A, Amplex Red method, 0.5 mM tyramine substrate; settings: read-out: Inhibitory Activity (IC50, nM) MAO-A
T2 construct: purchased Sigma-Aldrich
T2 sequence (P21397 1-527): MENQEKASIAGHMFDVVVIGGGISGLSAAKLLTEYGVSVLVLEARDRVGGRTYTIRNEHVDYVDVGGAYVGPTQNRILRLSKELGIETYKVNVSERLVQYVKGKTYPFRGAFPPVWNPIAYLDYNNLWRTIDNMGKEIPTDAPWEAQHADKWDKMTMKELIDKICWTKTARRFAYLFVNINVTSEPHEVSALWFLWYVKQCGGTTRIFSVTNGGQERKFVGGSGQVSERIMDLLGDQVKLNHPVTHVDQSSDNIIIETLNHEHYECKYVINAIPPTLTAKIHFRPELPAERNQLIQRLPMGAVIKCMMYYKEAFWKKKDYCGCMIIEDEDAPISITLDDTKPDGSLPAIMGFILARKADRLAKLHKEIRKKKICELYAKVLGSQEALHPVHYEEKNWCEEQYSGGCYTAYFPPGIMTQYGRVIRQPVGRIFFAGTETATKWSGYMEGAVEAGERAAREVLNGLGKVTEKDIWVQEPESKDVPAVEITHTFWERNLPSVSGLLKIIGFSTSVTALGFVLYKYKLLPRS
Method in brief: (§1)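 Enzyme in pH 7.4 phosphate buffer; 30 min, 37° C with compound (DMSO <1%); start with 200 uM Amplex Red + 1 U/mL HRP + tyramine 0.5 mM (MAO-A) or benzylamine 1 mM (MAO-B); kinetic read ex 544/em 590, 1-2 h; % rate decrease vs DMSO control → IC50, 4-parameter fit.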

[3] = biological target: T3, recombinant human MAO-B (monoamine oxidase-B) (Homo sapiens, UniProt P27338); experiment: Activity on recombinant human MAO-B, Amplex Red method, 1 mM benzylamine substrate; settings: read-out: Inhibitory Activity (IC50, nM) MAO-B
T3 construct: purchased Sigma-Aldrich
T3 sequence (P27338 1-520): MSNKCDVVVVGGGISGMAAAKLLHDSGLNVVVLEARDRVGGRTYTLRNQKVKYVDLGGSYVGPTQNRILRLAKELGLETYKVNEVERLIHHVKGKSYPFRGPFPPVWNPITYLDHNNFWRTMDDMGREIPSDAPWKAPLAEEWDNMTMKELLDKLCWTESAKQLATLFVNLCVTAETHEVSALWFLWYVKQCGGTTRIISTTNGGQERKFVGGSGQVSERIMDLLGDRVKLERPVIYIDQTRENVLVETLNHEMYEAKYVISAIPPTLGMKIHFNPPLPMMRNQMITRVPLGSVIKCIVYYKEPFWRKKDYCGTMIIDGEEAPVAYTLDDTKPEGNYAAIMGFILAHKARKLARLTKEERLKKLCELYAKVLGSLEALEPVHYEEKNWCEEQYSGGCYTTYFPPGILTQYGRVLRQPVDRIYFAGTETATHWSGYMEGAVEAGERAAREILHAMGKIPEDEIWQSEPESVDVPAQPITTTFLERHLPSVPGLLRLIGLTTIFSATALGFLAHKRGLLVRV
Method in brief: as §1

[4] = biological target: T4, recombinant human DAO (diamine oxidase) (Homo sapiens, UniProt P19801); experiment: Activity on recombinant human DAO, Amplex Red method, 1 mM putrescine substrate
T4 construct: purchased R&D systems
T4 sequence (P19801 20-751): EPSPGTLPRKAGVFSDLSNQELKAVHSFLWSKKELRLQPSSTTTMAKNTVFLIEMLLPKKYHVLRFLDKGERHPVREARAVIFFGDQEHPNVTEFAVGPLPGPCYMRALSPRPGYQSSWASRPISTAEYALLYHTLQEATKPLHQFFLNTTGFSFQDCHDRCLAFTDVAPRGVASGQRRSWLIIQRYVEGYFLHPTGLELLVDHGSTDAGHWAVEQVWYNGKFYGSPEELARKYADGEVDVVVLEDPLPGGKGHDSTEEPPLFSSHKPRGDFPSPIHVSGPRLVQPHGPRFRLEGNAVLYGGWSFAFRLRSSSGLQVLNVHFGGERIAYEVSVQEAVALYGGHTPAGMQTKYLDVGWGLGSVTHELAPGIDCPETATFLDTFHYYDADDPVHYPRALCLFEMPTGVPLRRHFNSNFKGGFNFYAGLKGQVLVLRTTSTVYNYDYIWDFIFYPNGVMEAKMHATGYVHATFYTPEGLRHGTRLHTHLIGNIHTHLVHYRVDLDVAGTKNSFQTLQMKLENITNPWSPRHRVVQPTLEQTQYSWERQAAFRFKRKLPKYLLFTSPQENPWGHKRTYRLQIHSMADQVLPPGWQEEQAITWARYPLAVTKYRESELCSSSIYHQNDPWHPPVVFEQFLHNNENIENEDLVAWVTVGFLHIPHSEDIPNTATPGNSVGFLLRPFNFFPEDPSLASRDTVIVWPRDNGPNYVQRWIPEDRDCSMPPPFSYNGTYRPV
Method in brief: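 Inhibition of recombinant human DAO (diamine oxidase, R&D systems) was assessed with the Amplex Red Hydrogen Peroxide Assay Kit. Hydrogen peroxide produced from 1 mM putrescine was detected through an HRP-coupled reaction that converts Amplex Red into fluorescent resorufin, read at 544 nm excitation and 590 nm emission. IC50 values came from four-parameter logistic fits in GraphPad Prism.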

[5] = recombinant human DAO, 1 mM putrescine substrate, read-out: Inhibitory Activity (IC50, nM) DAO
[6] = recombinant human DAO, 1 mM putrescine, * = between 10 and 100 nM, ** = between 300 and 1000 nM, read-out: Inhibitory Activity (IC50, nM) DAO

| IC50 ([1]; 30 min preincubation at 37° C.) [nM] | IC50 ([2]; 0.5 mM tyramine) [nM] | IC50 ([3]; 1 mM benzylamine) [nM] | IC50 [1] [nM] | IC50 ([2]; 0.5 mM tyramine substrate) [nM] | IC50 ([3]; 1 mM benzylamine substrate) [nM] | IC50 [4, 5] [nM] | IC50 [4, 6] [nM] | SMILES | IC50 [4] [nM] |
| --- | --- | --- | --- | --- | --- | --- | --- | --- | --- |
|  |  |  | 2.5 | 13000 | > 10000 | 350 |  | NC/C(=C\F)Cn1ncn(-c2cccc(-c3ccc(N4CCCC4)cc3)n2)c1=O [Example 183, 2-[(2E)-2-(aminomethyl)-3-fluoroprop-2-en-1-yl]-4-{6-[4-(pyrrolidin-1-yl)phenyl]pyridin-2-yl}-2,4-dihydro-3H-1,2,4-triazol-3-one hydrochloride] |  |
|  |  |  | 1.9 | > 100000 | > 10000 | < 30 |  | CS(=O)(=O)c1ccc(-c2ccnc(-n3cnn(C/C(=C/F)CN)c3=O)c2)cc1 [Example 165, 2-[(2E)-2-(aminomethyl)-3-fluoroprop-2-en-1-yl]-4-{4-[4-(methylsulfonyl)phenyl]pyridin-2-yl}-2,4-dihydro-3H-1,2,4-triazol-3-one] |  |
|  |  |  | 0.78 | 24 | < 100 | < 100 |  | NC/C(=C/F)Cn1ncn(-c2ncc(-c3ccc4c(c3)OCO4)s2)c1=O [Example 232, 2-[(2Z)-2-(aminomethyl)-3-fluoroprop-2-en-1-yl]-4-[5-(1,3-benzodioxol-5-yl)-1,3-thiazol-2-yl]-2,4-dihydro-3H-1,2,4-triazol-3-one hydrochloride] |  |
| 0.6 | 780 | 174 |  |  |  |  | 17 | NC/C(=C\F)Cn1ncn(-c2ncc(Br)s2)c1=O [Example 41, 2-[(2E)-2-(aminomethyl)-3-fluoroprop-2-en-1-yl]-4-(5-bromo-1,3-thiazol-2-yl)-2,4-dihydro-3H-1,2,4-triazol-3-one hydrochloride] |  |
|  |  |  | 2.2 | > 100000 | 710 | 1100 |  | CN(C)c1cccc(-c2cccc(-n3cnn(C/C(=C/F)CN)c3=O)n2)c1 [Example 174, 2-[(2E)-2-(aminomethyl)-3-fluoroprop-2-en-1-yl]-4-{6-[3-(dimethylamino)phenyl]pyridin-2-yl}-2,4-dihydro-3H-1,2,4-triazol-3-one hydrochloride] |  |
| 0.8 | > 100000 | > 10000 |  |  |  |  | 18 | Cc1cc(-c2cccc(-n3cnn(C/C(=C/F)CN)c3=O)c2)ccc1N1CCOCC1 [Example 77, 2-[(2E)-2-(aminomethyl)-3-fluoroprop-2-en-1-yl]-4-[3′-methyl-4′-(morpholin-4-yl)biphenyl-3-yl]-2,4-dihydro-3H-1,2,4-triazol-3-one hydrochloride] |  |
| 1.6 | > 100000 | 617 |  |  |  |  | < 100 | Cc1cc(-c2ccc3sc(N)nc3c2)ncc1-n1cnn(C/C(=C/F)CN)c1=O [Example 127, 4-[6-(2-amino-1,3-benzothiazol-5-yl)-4-methylpyridin-3-yl]-2-[(2E)-2-(aminomethyl)-3-fluoroprop-2-en-1-yl]-2,4-dihydro-3H-1,2,4-triazol-3-one] |  |
|  |  |  | 2.4 | 20000 | < 100 | 170 |  | NC/C(=C\F)Cn1ncn(-c2cccc(/C=C/c3ccsc3)n2)c1=O [Example 237, 2-[(2E)-2-(aminomethyl)-3-fluoroprop-2-en-1-yl]-4-{6-[(E)-2-(thiophen-3-yl)ethenyl]pyridin-2-yl}-2,4-dihydro-3H-1,2,4-triazol-3-one] |  |
| 1.1 | > 100000 | 9600 |  |  |  |  | < 10 | NC/C(=C\F)Cn1ncn(-c2cccc(-c3cnc(O)c(C(F)(F)F)c3)c2)c1=O [Example 88, 2-[(2E)-2-(aminomethyl)-3-fluoroprop-2-en-1-yl]-4-{3-[6-hydroxy-5-(trifluoromethyl)pyridin-3-yl]phenyl}-2,4-dihydro-3H-1,2,4-triazol-3-one hydrochloride] |  |
|  |  |  | 0.94 | 770 | 22 | < 100 |  | NC/C(=C\F)Cn1ncn(-c2cnc(-c3ccc4nonc4c3)cn2)c1=O [Example 222, 2-[(2E)-2-(aminomethyl)-3-fluoroprop-2-en-1-yl]-4-[5-(2,1,3-benzooxadiazol-5-yl)pyrazin-2-yl]-2,4-dihydro-3H-1,2,4-triazol-3-one] |  |
| 1.3 | 68300 | 65 |  |  |  |  | < 100 | NC/C(=C\F)Cn1ncn(-c2ccc(-c3cccc(-c4nnc[nH]4)c3)cc2F)c1=O [Example 44, 2-[(2E)-2-(aminomethyl)-3-fluoroprop-2-en-1-yl]-4-[3-fluoro-3′-(4H-1,2,4-triazol-3-yl)biphenyl-4-yl]-2,4-dihydro-3H-1,2,4-triazol-3-one] |  |

| SMILES | IC50 ([1]; 30 min preincubation at 37° C.) [nM] | IC50 ([2]; 0.5 mM tyramine) [nM] | IC50 ([3]; 1 mM benzylamine) [nM] | IC50 [1] [nM] | IC50 ([2]; 0.5 mM tyramine substrate) [nM] | IC50 ([3]; 1 mM benzylamine substrate) [nM] | IC50 [4, 5] [nM] | IC50 [4, 6] [nM] | IC50 [4] [nM] |
| --- | --- | --- | --- | --- | --- | --- | --- | --- | --- |
| NC/C(=C\F)Cn1ncn(-c2cccc(C3=CCNCC3)c2)c1=O [Example 48, 2-[(2E)-2-(aminomethyl)-3-fluoroprop-2-en-1-yl]-4-[3-(1,2,3,6-tetrahydropyridin-4-yl)phenyl]-2,4-dihydro-3H-1,2,4-triazol-3-one dihydrochloride] | 0.56 | > 100000 | > 10000 |  |  |  |  |  | 0.79 |
